Literature values as cited in patent publication US8883844B2, “Nitric oxide releasing amino acid ester for treatment of pulmonary hypertension and other respiratory conditions” (Nitrogenix Inc., priority 2010, dated 2014).
Where two headings read alike, the source gives them in different places.

Key:
[1] = oral; 3, 6, 9 and 12 months
[2] = open pilot study

Q: With `CC#CCC(C)[C@H](O)/C=C/[C@@H]1[C@H]2c3cccc(CCCC(=O)O)c3O[C@H]2C[C@H]1O` (mixture of isomers) [Beraprost, beraprost] as the compound, how does the “benefit in PAH” value [1] read?
A: The value was “benefit in a study in PAH at 3 and 6 months but not at 9 or 12 months”.

Q: What does the source list for `COc1ccccc1Oc1c(NS(=O)(=O)c2ccc(C(C)(C)C)cc2)nc(-c2ncccn2)nc1OCCO` [bosentan]?
A: liver toxicity (higher dose): liver toxicity occurred; six minute walk test (two placebo controlled trials, whole group, improvement greater at higher doses): improved

Q: For `Cc1cc2c(cc1CC(=O)c1sccc1S(=O)(=O)Nc1onc(C)c1Cl)OCO2` [sitaxsentan], which “decrease in pulmonary vascular resistance” value [2] is on record?
A: Its value is 30%.

Q: And the “six minute walk test” value [2]?
A: The value was “improvement”.
